Reference: article PMC11641365, “Evaluation of In Vitro Biological Activity of Flavanone/Chromanone Derivatives: Molecular Analysis of Anticancer Mechanisms in Colorectal Cancer” (International Journal of Molecular Sciences, 2024)

Tests used:
Format in all cases: cell-based, human
HT-29 [1] = assay: Hydrogen peroxide level, H2DCFDA probe; conditions: compound at IC50, 24 h, vs control
Procedure: Cellular H2O2 levels were assessed using 2′,7′-dichlorodihydrofluorescein diacetate (H2DCFDA, Sigma-Aldrich, St. Louis, MO, USA), a well-established fluorogenic probe for intracellular hydrogen peroxide detection. H2DCFDA readily diffuses across the cell membrane and is subsequently hydrolyzed by intracellular esterases to non-fluorescent H2DCF. Oxidation of H2DCF by ROS generates highly fluorescent 2′,7′-dichlorofluorescein (DCF), which accumulates in the cytosol. […] The fluorescence intensity of DCF is directly proportional to the concentration of ROS within the cell.
Cells were seeded in black 96-well fluorometric microplates at a density of 10 × 10^3 cells/mL. […] Following compound incubation, the medium was removed, and the cell monolayers were washed twice with HBSS (140 mM NaCl, 5 mM KCl, 0.8 mM MgCl2, 1.8 mM CaCl2, 1 mM Na2HPO4, 10 mM HEPES, and 1% glucose). A volume of 50 µL of H2DCFDA solution in HBSS (final concentration 5 μM) was added to each well, and the cells were incubated for 30 min in the dark at 37 °C. After incubation with the H2DCFDA, fluorescence measurements were conducted using a Perkin-Elmer LS-5B spectrofluorometer (MA, USA) at the following excitation and fluorescence emission wavelengths: λex = 498 nm/λem = 522 nm. The fluorescence intensity of control cells was arbitrarily assigned a value of 100%. The results were expressed as percentages of control, calculated by comparing the fluorescence intensity ratio of the test samples to controls (100%). The fluorescence of samples was denoted as Δf in relation to the control.

HT-29 [2] = assay: Intracellular GSH level, monochlorobimane (MCB) probe; conditions: compound at IC50, 24 h, vs control
Procedure: The spectrofluorimetric method with monochlorobimane (MCB; Sigma-Aldrich; St. Louis, MO, USA) was used to determine GSH. Monochlorobimane reacts with glutathione in a reaction catalyzed by cellular glutathione S-transferase. The reaction produces a fluorescent bimane-glutathione conjugate (GSH-MCB). A major advantage of MCB is its ability to penetrate the cell membrane, which is why it is used as a probe to determine the amount of GSH in living cells.
Cells were seeded in black 96-well fluorometric microplates at a density of 10 × 10^3 cells/mL. […] Following compound incubation, the medium was removed, and the cell monolayers were washed twice with HBSS (140 mM NaCl, 5 mM KCl, 0.8 mM MgCl2, 1.8 mM CaCl2, 1 mM Na2HPO4, 10 mM HEPES, and 1% glucose). A solution of MCB at a final concentration of 40 μM was added to each well and incubated in a CO2 cell culture incubator at 37 °C for 20 min. A 40 mM MCB stock solution was prepared by dissolving 9 mg of the reagent in 1 mL of absolute ethanol. Fluorescence was measured using a Perkin-Elmer LS-5B spectrofluorometer (Waltham, MA, USA) at the following excitation and fluorescence emission wavelengths: λex = 380 nm/λem = 470 nm. After incubation with MCB, the cells were lysed with 50 μL of lysis buffer (10 mM TRIS-HCl; pH 8 containing 0.1% Triton X-100). In order to normalize the number of cells in individual samples, the amount of DNA was determined by adding 50 μL of ethidium bromide (EB, final concentration 0.2 mM) to each well after measuring the MCB fluorescence and measuring the EB fluorescence at an excitation wavelength of λex = 530 nm and an emission wavelength of λem = 590 nm. The results obtained using the standard curve were converted to nM of GSH.

Caco-2 = assay: Cell cycle analysis via flow cytometry (propidium iodide); conditions: compound at IC50, 24 h, vs control
Procedure: The most commonly used fluorescent dyes for cell cycle analysis are fluorochromes that penetrate the cell membrane into the interior of permeabilized cells and bind stoichiometrically to DNA via intercalation, e.g., DAPI, propidium iodide (PI). The analysis is performed on cells fixed in ethanol. In this work, the cell cycle analysis was performed using the method described by Darzynkiewicz and Juan.
Cells (10 × 10^3) were seeded in 35 mm dishes and cultured in the medium for 24 h to attain the logarithmic growth phase. […] Subsequently, cells were trypsinized and centrifuged for 10 min at 400× g at 4 °C. The cell suspension in 100 μL of PBS was fixed in 1 mL of 70% ethanol (−20 °C) and stored at this temperature until analysis. Immediately before analysis, the ethanol-fixed cell suspension was centrifuged at 10,000 rpm for 10 min at 4 °C. The pellet was washed with cold (4 °C) PBS to remove residual ethanol, and the cell suspension was centrifuged again under the same conditions. A volume of 300 μL of PBS containing 4 mg/mL propidium iodide (final concentration 75 μM) and 1 mg/mL RNAse A (final concentration 20 μg/mL) was added to the cell pellet and incubated for at least 30 min at 37 °C in the dark. Stained cells were analyzed using a flow cytometer (Becton Dickinson, Franklin Lakes, NJ, USA), counting 10,000 cells in each sample. Data were analyzed using FlowJo 10.10 software (FlowJo, Williamson Way Ashland, OR, USA).

LoVo = assay: MTT test after pre-incubation with antioxidants NAC or Trolox; conditions: vs cells without antioxidant pre-incubation
Procedure: Moreover, the elevation of ROS levels was accompanied by a decrease in intracellular GSH. To investigate the role of ROS in the cytotoxic activity of flavonoid derivatives against cancer cells, LoVo cancer cells were pre-treated with antioxidants, NAC or a water-soluble derivative of vitamin E (Trolox), for 1 h before exposure to the studied compounds. Subsequently, the MTT assay was performed.
To elucidate the involvement of ROS in the cytotoxic effects of the investigated compounds, cells were pre-treated with the vitamin E (Trolox, Sigma-Aldrich, St. Louis, MO, USA) or N-Acetylcysteine (NAC) antioxidants for 1 h. Cells were seeded into sterile, colorless 96-well microplates at a density of 6–8 × 10^3 cells/mL, contingent upon the cell line. Following a 24 h culture period, Trolox or NAC was added at a final concentration of 50 μM and 3 mM, respectively. After 1 h of incubation, the antioxidants were removed by washing, and test compounds were administered at appropriate concentrations (10–200 μM) in fresh cell culture medium, followed by a 24 h incubation. The MTT assay was then conducted under identical experimental conditions, as detailed in Section 2.2.

Row | Compound | Increase in H2O2 levels (HT-29 [1]) | Decrease in GSH levels (HT-29 [2]) | Increase in the G2/M phase cell percentage (Caco-2) [%] | Change of the IC50 value after pre-incubation with Trolox (LoVo)
1 | O=C1/C(=C/c2ccccc2)COc2ccccc21 [Compound 1] | approximately 25% | 25–30% | 30 | 
2 | COc1cccc(/C=C2/C(=O)c3ccccc3OC2c2ccccc2)c1 (stereo not shown) [Compound 3] |  |  |  | Statistically significant increases in the IC50 value
3 | O=C1/C(=C/c2ccccc2)C(c2ccccc2)Oc2ccccc21 (stereo not shown) [Compound 5] | around 15% | 25–30% |  | Statistically significant increases in the IC50 value
